Measured values published in publication PMC7228900, “From sequence to function: a new workflow for nitrilase identification” (Applied Microbiology and Biotechnology, 2020).

Test system: T1, Nit09
T1 construct: His6-tagged, expressed in E. coli TOP10 from pBAD18, Ni-TED purified; gene 1005 bp
Assay: GDH-coupled NADH oxidation at […] nm, Michaelis-Menten fit
Assay type: biochemical, uncultured bacterium
Details: 37 °C, 0.1 M HEPES pH 8.0; fit up to 6 mM, substrate inhibition above 10 mM

SMILES: N#CCc1ccccc1 [phenylacetonitrile]
- Km: 1290 µM
